From PubChem BioAssay (NCI)
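Test compounds were applied to cells in 96-well plates for 48 hours at 5 doses. Definition used: TGI = concentration required for complete inhibition of growth.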

Experiments:
Assay in all cases: DTP human tumour cell line panel, 48 h
BT-549 breast = test system: BT-549 breast
COLO 205 colon = test system: COLO 205 colon
DU-145 prostate = test system: DU-145 prostate
HCC-2998 colon = test system: HCC-2998 colon
HL-60(TB) leukemia = test system: HL-60(TB) leukemia
HS 578T breast = test system: HS 578T breast
MALME-3M melanoma = test system: MALME-3M melanoma
MDA-MB-231 breast = test system: MDA-MB-231 breast
NCI-H226 lung = test system: NCI-H226 lung
SF-268 CNS = test system: SF-268 CNS
SK-MEL-5 melanoma = test system: SK-MEL-5 melanoma
SW-620 colon = test system: SW-620 colon
U251 CNS = test system: U251 CNS
HT29 colon = test system: HT29 colon

Row | SMILES | TGI (BT-549 breast) [µM] | TGI (COLO 205 colon) [µM] | TGI (DU-145 prostate) [µM] | TGI (HCC-2998 colon) [µM] | TGI (HL-60(TB) leukemia) [µM] | TGI (HS 578T breast) [µM] | TGI (MALME-3M melanoma) [µM] | TGI (MDA-MB-231 breast) [µM] | TGI (NCI-H226 lung) [µM] | TGI (SF-268 CNS) [µM] | TGI (SK-MEL-5 melanoma) [µM] | TGI (SW-620 colon) [µM] | TGI (U251 CNS) [µM] | TGI (HT29 colon) [µM]
1 | c1ccc2c(c1)n1c(N3CCCC3)[n+]3ccccc3c1c1c3cccc[n+]3c(N3CCCC3)n21 | > 100 | 74.9 | > 100 | > 100 | > 100 | > 100 | > 100 | > 100 | > 100 | 45.2 | 65.8 | > 100 | > 100 | –
2 | CC1=CC(=O)c2ccc3c4ccccc4n(C)c3c2C1=O | > 100 | > 100 | > 100 | > 100 | > 72.3 | > 100 | 30 | > 100 | > 100 | > 100 | 30.5 | > 100 | > 100 | > 31.6
3 | CCc1cn(C2CC(CO)C(CO)S2)c(=O)[nH]c1=O (centres undefined) | > 100 | > 100 | > 100 | > 100 | > 100 | > 100 | > 100 | > 100 | > 100 | > 100 | > 100 | > 100 | > 100 | > 100
4 | COC(=O)/C=C1\C(=O)Nc2ccc(Br)cc21 | 3.88 | 3.45 | 4.38 | 4.58 | 3.92 | > 34.4 | 7.75 | 6.64 | 4.03 | 13.8 | 3.2 | 3.22 | 4.73 | 3.68
5 | O=C(c1ccsc1)c1nccc2c1cnc1ccccc12 | > 100 | > 100 | > 100 | – | 6.65 | 70.6 | > 100 | > 100 | > 100 | > 100 | > 100 | > 100 | > 100 | > 100
6 | O=C1C=CC2(C=C1)O[C@H](CCc1ccccc1)[C@@H](CCc1ccccc1)O2 | > 100 | > 100 | > 100 | – | > 100 | > 100 | > 100 | > 100 | > 100 | > 100 | > 100 | > 100 | 38.2 | > 100
7 | O=C(O)c1cc(-c2ccc3cc(O)c(O)cc3c2)ccc1O | > 12.5 | > 12.5 | > 12.5 | – | > 12.5 | > 12.5 | > 12.5 | > 12.5 | > 12.5 | > 12.5 | > 12.5 | > 12.5 | > 12.5 | > 12.5
